Experimental data reported in patent publication US10457707B2, “Substituted urea depsipeptide analogs as activators of the CLPP endopeptidase” (priority 2015, dated 2019).
In brackets after ≈: the same amount, converted by molar mass. Where two headings read alike, the source gives them in different places. *1 amine or outer side, *2 acyl side, *3 side chain or, on linkers, in order; H or OH if unused. Where a SMILES comes first, the peptide text is derived from it. Bridges are numbered along the chain shown (N, C = ends). [ ]: non-standard residue; d: D form. The star is where a group is joined. ξ: configuration not given here. Phe(3,5-F2) = N[C@@H](Cc1cc(F)cc(F)c1)C(=O)O; NH(4-OCF3-phenyl) = FC(F)(F)Oc1ccc(N*)cc1; Pro(4R-Me) = C[C@H]1CN[C@H](C(=O)O)C1; ξPro(4R-OH) = O=C(O)C1C[C@@H](O)CN1; ξPro(4S-Me) = C[C@@H]1CNC(C(=O)O)C1; ξPro(4R-Me) = C[C@H]1CNC(C(=O)O)C1; NH(4-Et-phenyl) = CCc1ccc(N*)cc1; aThr = C[C@H](O)[C@H](N)C(=O)O; X12 = c1nc2ccc(N*)cc2[nH]1; Pip = O=C(O)[C@@H]1CCCCN1; NMeA = CN[C@@H](C)C(=O)O; ξPip = O=C(O)C1CCCCN1; CO = O=C([*:1])[*:2]; ξP = O=C(O)C1CCCN1

What was measured:
Assay type in all cases: cell-based
[1] = test system: Bacillus subtilis, ATCC 23857; test: Minimal inhibitory concentration assay (microbroth dilution); conditions: Bacillus subtilis, ATCC23857; read-out: Minimal Inhibitory Concentrations B. subtilis ATCC 23857
Method: (§1) It is understood, that in various aspects, the MIC is determined by a microbroth dilution method. In a further aspect, the MIC is determined by a microbroth dilution method using Staphylococcus aureus, ATCC 29213. In a still further aspect, the MIC is determined by a microbroth dilution method using Staphylococcus aureus, NRS70. In a yet further aspect, the MIC is determined by a microbroth dilution method using Streptococcus pyogenes, ATCC 700294. In an even further aspect, the MIC is determined by a microbroth dilution method using Streptococcus pneumoniae, DAW27. In a still further aspect, the MIC is determined by a microbroth dilution method using Bacillus subtilis, ATCC 23857. In a yet further aspect, the MIC is determined by a microbroth dilution method using Enterococcus faecalis, ATCC 33186. In an even further aspect, the MIC is determined using Staphylococcus aureus, USA 300. In a still further aspect, the MIC is determined using Streptococcus pneumoniae, R6. In a further aspect, the MIC is determined using Staphylococcus aureus, USA 300 and compared to the MIC determined using Staphylococcus aureus, USA 300 wherein ClpP is inactivated, thus allowing confirmation that killing is via a ClpP-dependent pathway.
(§2) Minimal inhibitory concentrations (“MICs”) were determined using the microbroth dilution method according to Clinical Laboratory Standards Institute (CLSI; National, C.F. C. L. S., Methods for Dilution Antimicrobial Susceptibility Tests for Bacteria Grow aerobically-Seventh Edition: Approved Standard M7-A7, CLSI, Wayne, Pa., USA, 2008) and were read by visual inspection. Two fold serial dilutions of test compound in 100 μL of the appropriate broth media were first prepared in 96-well round bottom microtiter plates (Nalgene Nunc International, Rochester, N.Y., USA). An equivalent volume (100 μL) of bacterial broth inocula containing approximately 10^5 bacterial cfu/mL was added to each well to give final concentrations of test compound starting at 200 μM. The plates were then incubated aerobically at 37° C. All strains were incubated overnight. After incubations, in all cases the MIC was recorded as the lowest concentration of drug that prevented bacterial growth. The bacterial strains for which MIC was determined as described in Table 4.

[2] = test system: Staphylococcus aureus, ATCC 29213; test: as above; conditions: ATCC29213, read-out: Minimal Inhibitory Concentrations S. aureus ATCC 29213
Method: as §1, §2

[3] = test system: Staphylococcus aureus, NRS70; test: as above
Method: as §1, §2

[4] = test system: Streptococcus pyogenes, ATCC 700294; test: as above; conditions: Streptococcus pyogenes, ATCC700294; read-out: Minimal Inhibitory Concentrations S. pyogenes ATCC 700294
Method: as §1
Minimal inhibitory concentrations (“MICs”) were determined using the microbroth dilution method according to Clinical Laboratory Standards Institute (CLSI; National, C.F. C. L. S., Methods for Dilution Antimicrobial Susceptibility Tests for Bacteria Grow aerobically-Seventh Edition: Approved Standard M7-A7, CLSI, Wayne, Pa., USA, 2008) and were read by visual inspection. Two fold serial dilutions of test compound in 100 μL of the appropriate broth media were first prepared in 96-well round bottom microtiter plates (Nalgene Nunc International, Rochester, N.Y., USA). […] The plates were then incubated aerobically at 37° C. All strains were incubated overnight. After incubations, in all cases the MIC was recorded as the lowest concentration of drug that prevented bacterial growth. The bacterial strains for which MIC was determined as described in Table 4.

[5] = test system: Staphylococcus aureus, USA 300 wherein ClpP is inactivated; test: Minimal inhibitory concentration assay
Method: as §1, §2

[6] = test system: Staphylococcus aureus, USA 300; test: Minimal inhibitory concentration assay; conditions: USA300, read-out: Minimal Inhibitory Concentrations S. aureus USA 300
Method: as §1, §2

[7] = test system: Enterococcus faecalis, ATCC 33186; test: Minimal inhibitory concentration assay (microbroth dilution); conditions: Enterococcus faecalis, ATCC33186, read-out: Minimal Inhibitory Concentrations E. faecalis ATCC 33186
Method: as §1, §2

[8] = Staphylococcus aureus, NRS70; read-out: Minimal Inhibitory Concentrations S. aureus NRS70

| Structure (SMILES) | MIC [1] | MIC [2] | MIC [3, 8] | MIC [4] | Minimal Inhibitory Concentrations S. aureus USA 300 ΔClpP [5] | MIC [6] | MIC [7] | MIC ([3]; Staphylococcus aureus, NRS70, read-out: Minimal Inhibitory Concentrations S. aureus NRS70) |
| --- | --- | --- | --- | --- | --- | --- | --- | --- |
| CCc1ccc(NC(=O)N[C@@H](Cc2cc(F)cc(F)c2)C(=O)N[C@@H]2C(=O)N3CCCC3C(=O)N(C)[C@@H](C)C(=O)N[C@@H](C)C(=O)N3C[C@@H](C)CC3C(=O)O[C@H]2C)cc1 (stereo partly drawn) [Compound 30, (S)-3-(3,5-difluorophenyl)-2-(3-(4-ethylphenyl)ureido)-N-((2S,6S,9S,11aS,17S,18S,20aS)-2,6,9,10,18-pentamethyl-5,8,11,16,20-pentaoxohexadecahydro-1H,5H,16H-dipyrrolo[2,1-c:2′,1′-L][1]oxa[4,7,10,13]tetraazacyclohexadecin-17-yl)propanamide] ({NH(4-Et-phenyl)-CO}-[Phe(3,5-F2)][aThr][ξP][NMeA]A[ξPro(4S-Me)]; ester 2-C) | 0.001 µM (≈ 0.000796 µg/mL) | 0.1 µM (≈ 0.0796 µg/mL) | 0.2 µM (≈ 0.159 µg/mL) | 0.03 µM (≈ 0.0239 µg/mL) | 50 µM | 0.1 µM (≈ 0.0796 µg/mL) | – | – |
| CCc1ccc(NC(=O)N[C@@H](Cc2cc(F)cc(F)c2)C(=O)N[C@@H]2C(=O)N3CCCC3C(=O)N(C)[C@@H](C)C(=O)N[C@@H](C)C(=O)N3CCCC3C(=O)O[C@H]2C)cc1 (stereo partly drawn) [Compound 29, (2S)-3-(3,5-difluorophenyl)-2-(3-(4-ethylphenyl)ureido)-N-((6S,9S,11aS,17S,18S)-6,9,10,18-tetramethyl-5,8,11,16,20-pentaoxohexadecahydro-1H,5H,16H-dipyrrolo[2,1-c:2′,1′-l][1]oxa[4,7,10,13]tetraazacyclohexadecin-17-yl)propanamide] ({NH(4-Et-phenyl)-CO}-[Phe(3,5-F2)][aThr][ξP][NMeA]A[ξP]; ester 2-C) | 0.01 µM (≈ 0.00782 µg/mL) | 0.2 µM (≈ 0.156 µg/mL) | 0.2 µM (≈ 0.156 µg/mL) | 0.13 µM (≈ 0.102 µg/mL) | 100 µM | 0.2 µM (≈ 0.156 µg/mL) | – | – |
| C[C@@H]1NC(=O)[C@H](C)N(C)C(=O)C2CCCN2C(=O)[C@@H](NC(=O)[C@H](Cc2cc(F)cc(F)c2)NC(=O)Nc2ccc(OC(F)(F)F)cc2)[C@H](C)OC(=O)C2CCCN2C1=O (stereo partly drawn) [Compound 27, (2S)-3-(3,5-difluorophenyl)-N-((6S,9S,11aS,17S,18S)-6,9,10,18-tetramethyl-5,8,11,16,20-pentaoxohexadecahydro-1H,5H,16H-dipyrrolo[2,1-c:2′,1′-l][1]oxa[4,7,10,13]tetraazacyclohexadecin-17-yl)-2-(3-(4-(trifluoromethoxy)phenyl)ureido)propanamide] ({NH(4-OCF3-phenyl)-CO}-[Phe(3,5-F2)][aThr][ξP][NMeA]A[ξP]; ester 2-C) | 0.02 µM (≈ 0.0168 µg/mL) | 0.2 µM (≈ 0.168 µg/mL) | 0.2 µM (≈ 0.168 µg/mL) | 0.23 µM (≈ 0.193 µg/mL) | 100 µM | 0.2 µM (≈ 0.168 µg/mL) | – | – |
| C[C@H]1CC2C(=O)OC[C@H](NC(=O)[C@H](Cc3cc(F)cc(F)c3)NC(=O)Nc3ccc4c(c3)OCO4)C(=O)N3CCCC3C(=O)N3CCCCC3C(=O)N[C@@H](C)C(=O)N2C1 (stereo partly drawn) [Compound 46, (S)-2-(3-(benzo[d][1,3]dioxol-5-yl)ureido)-3-(3,5-difluorophenyl)-N-((2S,6S,8aS,14aS,20S,23aS)-2,6-dimethyl-5,8,14,19,23-pentaoxooctadecahydro-1H,5H,14H,19H-pyrido[2,1-i]dipyrrolo[2,1-c:2′,1′-l][1]oxa[4,7,10,13]tetraazacyclohexadecin-20-yl)propanamide] | 0.4 µM (≈ 0.33 µg/mL) | 3.1 µM (≈ 2.55 µg/mL) | 1.6 µM (≈ 1.32 µg/mL) | 0.8 µM (≈ 0.659 µg/mL) | 200 µM | 3.1 µM (≈ 2.55 µg/mL) | – | – |
| C[C@H]1CC2C(=O)OC[C@H](NC(=O)[C@H](Cc3ccccc3)NC(=O)Nc3ccc(OC(F)(F)F)cc3)C(=O)N3CCCC3C(=O)N3CCCCC3C(=O)N[C@@H](C)C(=O)N2C1 (stereo partly drawn) [Compound 44, (S)—N-((2S,6S,8aS,14aS,20S,23aS)-2,6-dimethyl-5,8,14,19,23-pentaoxooctadecahydro-1H,5H,14H,19H-pyrido[2,1-i]dipyrrolo[2,1-c:2′,1′-l][1]oxa[4,7,10,13]tetraazacyclohexadecin-20-yl)-3-phenyl-2-(3-(4-(trifluoromethoxy)phenyl)ureido)propanamide] | 0.1 µM (≈ 0.0828 µg/mL) | 0.4 µM (≈ 0.331 µg/mL) | 0.4 µM (≈ 0.331 µg/mL) | 0.2 µM (≈ 0.166 µg/mL) | 50 µM | 0.8 µM (≈ 0.662 µg/mL) | – | – |
| C[C@H]1CC2C(=O)O[C@@H](C)[C@H](NC(=O)[C@H](Cc3cc(F)cc(F)c3)NC(=O)Nc3ccc(OC(F)(F)F)cc3)C(=O)N3C[C@H](O)CC3C(=O)N(C)[C@@H](C)C(=O)N[C@@H](C)C(=O)N2C1 (stereo partly drawn) [Compound 32, (S)-3-(3,5-difluorophenyl)-N-((2S,6S,9S,11aS,13R,17S,18S,20aS)-13-hydroxy-2,6,9,10,18-pentamethyl-5,8,11,16,20-pentaoxohexadecahydro-1H,5H,16H-dipyrrolo[2,1-c:2′,1′-l][1]oxa[4,7,10,13]tetraazacyclohexadecin-17-yl)-2-(3-(4-(trifluoromethoxy)phenyl)ureido)propanamide] ({NH(4-OCF3-phenyl)-CO}-[Phe(3,5-F2)][aThr][ξPro(4R-OH)][NMeA]A[ξPro(4S-Me)]; ester 2-C) | 0.39 µM (≈ 0.338 µg/mL) | 0.1 µM (≈ 0.0868 µg/mL) | 0.1 µM (≈ 0.0868 µg/mL) | 0.2 µM (≈ 0.174 µg/mL) | 100 µM | 0.39 µM (≈ 0.338 µg/mL) | – | – |
| C[C@@H]1C[C@H]2C(=O)O[C@@H](C)[C@H](NC(=O)[C@H](Cc3cc(F)cc(F)c3)NC(=O)Nc3ccc4nc[nH]c4c3)C(=O)N3CCC[C@H]3C(=O)N3CCCC[C@H]3C(=O)N[C@@H](C)C(=O)N2C1 [Compound 303, (S)-2-(3-(1H-benzo[d]imidazol-6-yl)ureido)-3-(3,5-difluorophenyl)-N-((2R,6S,8aS,14aS,20S,21S,23aS)-2,6,21-trimethyl-5,8,14,19,23-pentaoxooctadecahydro-1H,5H,14H,19H-pyrido[2,1-i]dipyrrolo[2,1-c:2′,1′-l][1]oxa[4,7,10,13]tetraazacyclo-hexadecin-20-yl)propanamide] ({X12-CO}-[Phe(3,5-F2)][aThr]P[Pip]A[Pro(4R-Me)]; ester 2-C) | – | 20 µM (≈ 16.7 µg/mL) | – | – | >20 µM | 15.1 µM (≈ 12.6 µg/mL) | 2.5 µM (≈ 2.08 µg/mL) | 10.1 µM (≈ 8.42 µg/mL) |
| C[C@@H]1CC2C(=O)O[C@@H](C)[C@H](NC(=O)[C@H](Cc3cc(F)cc(F)c3)NC(=O)Nc3ccc(OC(F)(F)F)cc3)C(=O)N3CCCC3C(=O)N3CCCCC3C(=O)N[C@@H](C)C(=O)N2C1 (stereo partly drawn) [Compound 40, (S)-3-(3,5-difluorophenyl)-2-(3-(4-(trifluoromethoxy)phenyl)ureido)-N-((2R,6S,8aS,14aS,20S,21S,23aS)-2,6,21-trimethyl-5,8,14,19,23-pentaoxooctadecahydro-1H,5H,14H,19H-pyrido[2,1-i]dipyrrolo[2,1-c:2′,1′-L][1]oxa[4,7,10,13]tetraazacyclohexadecin-20-yl)propanamide] ({NH(4-OCF3-phenyl)-CO}-[Phe(3,5-F2)][aThr][ξP][ξPip]A[ξPro(4R-Me)]; ester 2-C) | 0.02 µM (≈ 0.0176 µg/mL) | 0.05 µM (≈ 0.0439 µg/mL) | 0.02 µM (≈ 0.0176 µg/mL) | 0.4 µM (≈ 0.351 µg/mL) | 25 µM | 0.05 µM (≈ 0.0439 µg/mL) | – | – |
